# Reference: ChEMBL document CHEMBL3120082, “Synthesis and in vitro anti-proliferative effects of 3-(hetero)aryl substituted 3-[(prop-2-ynyloxy)(thiophen-2-yl)methyl]pyridine derivatives on various cancer cell lines” (Bioorg Med Chem Lett, 2014)
# pIC50: −log10 of the molar value. The source made the active and inactive calls. The calls are words filed in the database; no cut-off is given here.
# What was measured:
# [1] = Cytotoxicity against human HEK293 cells assessed as cell viability at 10 uM after 24 hrs by MTT assay; type: cell-based; conditions: read-out: GI
# [2] = system: MDA-MB-231; test: Cytotoxicity against estrogen receptor-negative human MDA-MB-231 cells assessed as cell viability at 10 uM after 24 hrs by MTT assay; type: functional; conditions: for inhibition of growth at 10 µM: MDA-MB-231, 24 h, read-out: GI
# [3] = system: HepG2; test: Cytotoxicity against human HepG2 cells assessed as cell viability at 10 uM after 24 hrs by MTT assay; type: functional; conditions: for inhibition of growth at 10 µM: HepG2, 24 h, read-out: GI
# [4] = system: K562; test: Cytotoxicity against human K562 cells assessed as cell viability at 10 uM after 24 hrs by MTT assay; type: functional; conditions: for inhibition of growth at 10 µM: K562, 24 h, read-out: GI
# [5] = system: COLO 205; test: Cytotoxicity against human COLO205 cells assessed as cell viability at 10 uM after 24 hrs by MTT assay; type: functional; conditions: for inhibition of growth at 10 µM: COLO 205, 24 h, read-out: GI
# [6] = system: MCF7; test: Cytotoxicity against estrogen receptor-positive human MCF7 cells assessed as cell viability at 10 uM after 24 hrs by MTT assay; type: functional; conditions: for inhibition of growth at 10 µM: MCF7, 24 h, read-out: GI
# [7] = (§1) Cytotoxicity against human IMR32 cells assessed as cell viability at 10 uM after 24 hrs by MTT assay; type: functional; conditions: IMR-32, 24 h, read-out: GI
# [8] = system: IMR-32; test: as §1; type: functional
# [9] = system: MCF7; test: Cytotoxicity against estrogen receptor-positive human MCF7 cells after 24 hrs by MTT assay; type: functional, cell-based; conditions: MCF7, 24 h
# [10] = system: MDA-MB-231; test: Cytotoxicity against estrogen receptor-negative human MDA-MB-231 cells after 24 hrs by MTT assay; type: functional, cell-based; conditions: MDA-MB-231, 24 h
Structure (SMILES),"inhibition at 24 h, 10 µM [1] [%]",inhibition of growth at 10 µM [2] [%],inhibition of growth at 10 µM [3] [%],inhibition of growth at 10 µM [4] [%],inhibition of growth at 10 µM [5] [%],inhibition of growth at 10 µM [6] [%],inhibition of growth at 10 µM [7] [%],growth inhibition (GI) [2],growth inhibition (GI) [3],growth inhibition (GI) [4],growth inhibition (GI) [5],growth inhibition (GI) [6],growth inhibition (GI) [8],pIC50 [9],pIC50 ([10]; read-out: IC50),pIC50 [10]
Clc1ncccc1C(OCC#Cc1ccc(I)cc1)c1cccs1 (stereo not given),0,52.2,54.2,48,39,45.6,60,–,–,–,–,–,–,–,–,–
CCOC(=O)COC(c1cccs1)c1cccnc1Cl (stereo not given),–,–,–,–,–,–,–,inactive,inactive,inactive,inactive,inactive,inactive,–,–,–
CCOC(=O)c1c[nH]nc1C#CCOC(c1cccs1)c1cccnc1Cl (stereo not given),0.4,35.3,34.3,54.8,45.8,33.8,30.9,–,–,–,–,–,–,–,–,–
Nc1ccccc1C#CCOC(c1cccs1)c1cccnc1Cl (stereo not given),3.2,73.3,36.2,43.8,37.8,69.3,47.6,–,–,–,–,–,–,5.89,6.02,–
O=C(O)c1ccc(C#CCOC(c2cccs2)c2cccnc2Cl)cc1 (stereo not given),4.8,38.9,38.2,57.7,44,35.9,39.6,–,–,–,–,–,–,–,–,–
O=C(O)COC(c1cccs1)c1cccnc1Cl (stereo not given),–,–,–,–,–,–,–,inactive,inactive,inactive,inactive,inactive,inactive,–,–,–
O=C(O)c1ccccc1C#CCOC(c1cccs1)c1cccnc1Cl (stereo not given),2.7,47.9,33.1,40.2,34.7,35.9,38.1,–,–,–,–,–,–,–,–,–
CCOC(=O)c1c(C#CCOC(c2cccs2)c2cccnc2Cl)sc2c1CCCC2 (stereo not given),-0.9,46.4,29.5,53,32.1,31.8,22.5,–,–,–,–,–,–,–,–,–
O=[N+]([O-])c1ccccc1C#CCOC(c1cccs1)c1cccnc1Cl (stereo not given),0.1,48,46.2,18.9,16.5,34.8,53.2,–,–,–,–,–,–,–,–,–
O=C1Nc2ccc(C#CCOC(c3cccs3)c3cccnc3Cl)cc2C1=O (stereo not given),0.8,72.3,44.8,61.1,49.3,71.9,58.4,–,–,–,–,–,–,5.98,6.00,–
CCOC(=O)c1sc2c(c1C#CCOC(c1cccs1)c1cccnc1Cl)CCC2 (stereo not given),-1.6,37.9,21.9,65.1,46,25,25.2,–,–,–,–,–,–,–,–,–
COc1ccc(C#CCOC(c2cccs2)c2cccnc2Cl)cc1 (stereo not given),-1.1,70.1,13.9,33.8,31.6,64.7,20.7,–,–,–,–,–,–,5.76,5.94,–
OC(c1cccs1)c1cccnc1Cl (stereo not given),–,–,–,–,–,–,–,inactive,inactive,inactive,inactive,inactive,inactive,–,–,–
COc1cccc2c1C(=O)c1c(O)c3c(c(O)c1C2=O)C[C@@](O)(C(=O)CO)C[C@@H]3O[C@H]1C[C@H](N)[C@H](O)[C@H](C)O1 [DOXORUBICIN],–,–,–,–,–,–,–,–,–,–,–,–,–,6.36,–,6.19
Oc1ccccc1C#CCOC(c1cccs1)c1cccnc1Cl (stereo not given),6,70.8,13.6,40.6,28.5,67.7,34.4,–,–,–,–,–,–,5.82,5.96,–
